Results on two molecules are retold here after patent US20230404994A1, “MARKERS OF TISSUE AGING AND USES THEREFOR” (The University of Newcastle, priority 2017, published 2023).

Entries after “also recorded” stand apart in the source; their conditions may differ.

Assay [1] has as its system kidney. The conditions noted are these: Lindsey et al., 2011, Hypertension, 58: 665-671; cited from earlier work.
For assay [2], the system named is serum starved placental explants. Briefly: Placental explant culture in serum-free medium, 4HNE / LC3B / LAMP2 immunohistochemistry. It is filed as cell-based, human. The conditions noted are these: 24 hr of treatment; for disturbance in autophagosome size / disturbance in lysosomal location: serum starved placental explants; for production of 4HNE (induced by serum starvation): term placental explants, serum-free medium, 1 nM, p<0.05 (N=6). From the text: For in vitro experiments, human term placentas (38-39 weeks of gestation) were obtained from women with normal singleton pregnancies without any symptoms of labour after an elective (a scheduled repeat) caesarean section. Placentas were collected immediately after delivery and prepared for explant culture. Villous tissues of placentas were randomly sampled from different regions of placenta and 4-5 mm beneath the chorionic plate. Tissues were washed several times with Dulbecco's phosphate-buffered saline (DPBS) under sterile condition to remove excess blood.
Villous explants of ˜2 mm^3 were dissected and placed into 100×20 mm culture dishes (30 pieces/dish) containing 25 ml of Dulbecco's modified Eagle's medium (DMEM) supplemented with 2 mM L-glutamine, 1% Na-pyruvate, 1% penicillin/streptomycin (100×) solution with the addition of 10% (v/v) fetal bovine serum (FBS) and were cultured in a cell culture chamber at 37° C. temperature and maintaining 95% air (20% oxygen) and 5% CO2 for 24 hours. At day 2, villous explants were transferred to fresh 30 ml growth medium and incubated in a cell culture chamber for 90 minutes. After this the tissues were washed in DMEM without FBS (refer to as ‘serum-free medium’ or ‘growth factor deficient medium’). Next 6-7 pieces of villous tissue weighing approximately 400 mg were transferred to a culture dish (60×15 mm) containing 6 ml serum-free medium with or without the addition of pharmacological agents, for example, raloxifene (1 nM) and GPER1 agonist G1 (1 nM), for subsequent incubation up to 24 h. At the end of 24 h some tissues were fixed in 2% formaldehyde, subjected to routine histological processing and embedded in paraffin wax, and some tissues were immediately frozen in liquid nitrogen and stored at −80° C. until subsequent experiments. For each placental explant culture, samples were also collected at time ‘0 (zero)’ h i.e., before incubation in serum free medium, and were formalin fixed and stored frozen at −80° C. until further experiments.
6 μm paraffin placental sections were deparaffinised and hydrated, then heated with tris-EDTA buffer (pH 9) in a microwave oven for antigen retrieval. The sections were blocked with 1% BSA in TBST for an hour at room temperature. The sections were incubated with primary antibodies overnight and washed three times with TBST, before incubation with Alexa-conjugated secondary antibodies for 90 mins. The sections were mounted with antifade solution with DAPI. The fluorescent photographs for FIGS. 3 to 7, 9 and 11 were taken on a Nikon eclipse 90i confocal microscope. The fluorescent photographs for FIG. 10 were taken on Nikon eclipse Ti fluorescence microscope.
The present data provide clear evidence for increased lipid oxidation, disordered lysosome-autophagosome interactions and increased AOX1 expression in the post-dated and stillbirth placental syncytiotrophoblast. To determine if these events were causally linked the inventors developed a placental explant culture system using term placental tissue cultured in serum-free (growth factor deficient) medium.
The inventors sought to determine cause and effect relationships between the development of lipid oxidation observed when placental explants were cultured in the absence of serum and AOX1. The GPER agonist G-1 was used to inhibit aldehyde oxidase. The potent AOX1 inhibitor, raloxifene, was also used.

With `CC(=O)c1ccc2c(c1)C1C=CCC1C(c1cc3c(cc1Br)OCO3)N2` (stereo not shown) [G1, 1-[4-(6-bromobenzo[1,3]dioxol-5yl)-3a,4,5,9b-tetrahydro-3H-cyclopenta[c]quinolin-8-yl]-ethanone], in assay [1], the “production of 4HNE in the kidney” value is “inhibit production of 4HNE in the kidney”. Also, in assay [2], the “disturbance in autophagosome size” value is given as “able to block”, the “disturbance in lysosomal location” value was “able to block” and the “production of 4HNE (induced by serum starvation)” value was “inhibited the production of 4HNE; also recorded: significantly reduced”.

Take `O=C(c1ccc(OCCN2CCCCC2)cc1)c1c(-c2ccc(O)cc2)sc2cc(O)ccc12` [raloxifene]: in assay [2], the “disturbance in autophagosome size” value is listed as “able to block”, the “disturbance in lysosomal location” value is given as “able to block” and the “production of 4HNE (induced by serum starvation)” value is recorded as “inhibited the production of 4HNE; also recorded: significantly reduced”.
